According to PubChem BioAssay (NCI):
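Following 48 hours of exposure in 96-well plates, responses at five concentrations were used to interpolate endpoints linearly. At the TGI there is no net growth.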

Assays:
Assay in all cases: NCI anticancer screen, dose series, 48 h
HL-60(TB) leukemia = tested on: HL-60(TB) leukemia
KM12 colon = tested on: KM12 colon
SF-539 CNS = tested on: SF-539 CNS
CCRF-CEM leukemia = tested on: CCRF-CEM leukemia
M14 melanoma = tested on: M14 melanoma
DLD-1 colon = tested on: DLD-1 colon
NCI-H460 lung = tested on: NCI-H460 lung
K-562 leukemia = tested on: K-562 leukemia
786-0 renal = tested on: 786-0 renal
NCI-H226 lung = tested on: NCI-H226 lung
SF-295 CNS = tested on: SF-295 CNS
ACHN renal = tested on: ACHN renal
TK-10 renal = tested on: TK-10 renal
NCI-H23 lung = tested on: NCI-H23 lung
OVCAR-4 ovarian = tested on: OVCAR-4 ovarian
SR leukemia = tested on: SR leukemia
MDA-N = tested on: MDA-N
MDA-MB-435 = tested on: MDA-MB-435
NCI/ADR-RES ovarian = tested on: NCI/ADR-RES ovarian
BT-549 breast = tested on: BT-549 breast

SMILES	TGI (HL-60(TB) leukemia) [µM]	TGI (KM12 colon) [µM]	TGI (SF-539 CNS) [µM]	TGI (CCRF-CEM leukemia) [µM]	TGI (M14 melanoma) [µM]	TGI (DLD-1 colon) [µM]	TGI (NCI-H460 lung) [µM]	TGI (K-562 leukemia) [µM]	TGI (786-0 renal) [µM]	TGI (NCI-H226 lung) [µM]	TGI (SF-295 CNS) [µM]	TGI (ACHN renal) [µM]	TGI (TK-10 renal) [µM]	TGI (NCI-H23 lung) [µM]	TGI (OVCAR-4 ovarian) [µM]	TGI (SR leukemia) [µM]	TGI (MDA-N) [µM]	TGI (MDA-MB-435) [µM]	TGI (NCI/ADR-RES ovarian) [µM]	TGI (BT-549 breast) [µM]
CCOC(=O)CC1=N/C(=N/C(=N)N[N+](=O)[O-])SC1	> 100	> 100	> 100	> 100	> 100	> 100	> 100	> 100	> 100	> 100	> 100	> 100	> 100	> 100	> 100	–	–	–	–	–
Nc1ccccc1N	70.3	> 100	> 100	> 100	> 100	> 100	> 100	> 100	> 100	–	> 100	> 100	> 100	> 100	> 100	> 100	–	–	–	–
COc1cccc2c1C(=O)c1c(O)c3c(c(O)c1C2=O)C[C@@](O)(C(=O)CO)CC3OC1CC(N(C)CCOCC(OC(C)=O)OC(C)=O)C(O)C(C)O1 (some centres undefined)	> 0.01	> 0.01	> 0.01	> 0.01	> 0.01	> 0.01	> 0.01	> 0.01	> 0.01	> 0.01	> 0.01	> 0.01	> 0.01	> 0.01	> 0.01	–	–	–	–	–
CN1C2CCC1/C(=C/c1cccc3c1OCO3)C(=O)/C2=C\c1cccc2c1OCO2	> 100	> 100	–	> 100	> 100	> 100	> 100	–	–	> 100	84.6	> 100	56.2	> 100	–	> 100	–	–	–	–
O=C1CSCC(=O)Nc2ccccc2N1	> 100	> 100	> 100	> 100	> 100	–	> 100	> 100	> 100	> 100	> 100	> 100	> 100	> 100	> 100	> 100	> 100	> 100	> 100	> 100
Cc1cccc(Nc2nc3ccccc3nc2NS(=O)(=O)c2ccc(N)cc2)c1	> 100	> 100	93.9	57.6	> 100	–	> 100	> 100	> 100	> 100	> 100	> 100	> 100	53.3	42.6	> 100	> 100	> 100	> 100	> 100
Clc1ccc(OCC2NC3CCC2CC3)cn1 (centres undefined)	51.9	35.3	38.5	77	36.5	–	55.1	41.4	36.7	> 100	68.8	> 100	> 100	> 100	> 100	44.6	33.5	43.4	> 100	> 100
C=CC(=O)NCCC(=O)OCn1cc(F)c(=O)[nH]c1=O	> 100	> 100	> 100	> 100	> 100	–	2.34	> 100	> 100	> 100	> 100	> 100	> 100	> 100	40.3	52.5	> 100	> 100	> 100	> 100
COc1ccc2c(c1)/C(=C/c1c(O)[nH]c(=S)[nH]c1=O)C=N2	> 100	> 100	> 100	> 100	> 100	–	> 100	> 100	> 100	> 100	> 100	> 100	> 100	> 100	> 100	> 100	> 100	> 100	> 100	> 100
Cc1ccc2c(c1C)C(=O)C1(C2)Cc2ccc3c(c2C1=O)CCC3 (centres undefined)	> 100	> 100	> 100	> 100	> 100	–	> 100	> 100	> 100	> 100	> 100	> 100	> 100	> 100	> 100	> 100	> 100	> 100	> 100	> 100
NS(=O)(=O)c1ccc(NC(=S)NC(=O)Nc2ccc(Cl)c(Cl)c2)cc1	33.5	28.3	39.7	70.7	20.9	–	> 69.8	> 82.6	31.1	43.8	30.8	32.2	81.5	33.7	44.1	> 100	29.6	35.7	44.6	31.7
COc1ccc(-c2cc(N3CCN(c4ccc(Cl)cc4)CC3)c(C#N)c(=O)o2)cc1	> 100	> 100	14.6	–	> 100	> 100	28.9	–	–	7.57	16.4	35.2	37.7	88.1	5.07	> 100	–	–	–	–
CC(=O)CCC#Cc1ccccc1C(=O)C(C)=[N+]=[N-]	> 100	> 100	> 100	> 100	> 100	> 100	> 100	> 100	–	> 100	> 100	> 100	> 100	> 100	> 100	–	–	–	–	–
O=C1c2ccccc2-c2nnc3c(c21)Cc1ccccc1C3	> 10	> 10	> 10	> 10	> 10	–	> 10	> 10	> 10	> 10	> 10	> 10	> 10	> 10	> 10	> 10	> 10	> 10	> 10	> 10
CC(C)=CCC[C@@H](C)[C@H]1CC[C@@]2(C)[C@@H]3CC[C@H]4C(C)(C)[C@@H](O)CC[C@@]45C[C@@]35CC[C@]12C	> 95.4	> 100	> 70.9	63.5	> 85.1	–	39.8	> 100	> 61.6	> 74.5	> 78.7	> 73.1	> 100	50.7	> 100	> 67.1	> 100	> 68.8	62.1	55.6
Cc1ccc(-c2n[nH]c(=O)n2/N=C\c2ccccc2O)cc1	> 100	> 100	> 100	> 100	> 100	–	> 100	> 100	> 100	> 100	> 100	> 100	> 100	> 100	> 100	> 100	> 100	> 100	> 100	> 100
